# Assay results: patent US10434086B2, “Combination therapies with curaxins” (Incuron, Inc., priority 2014, dated 2019)
# Read-outs that look alike come from different tables or passages of the source.
# Assays:
# [1] = system: patient-derived PDA #13756 tumors; assay: PDA #13756 study: CBL0137/gemcitabine against patient-derived pancreatic tumor engrafts; assay type: in vivo, SCID mice
# Source text: (§1) Seventy and sixty female athymic nude mice were obtained for each H1975 Non-Small Cell Lung Cancer Xenograft study and split into treatment groups consisting of 10 animals per group (2 cages of 5 mice per cage).
# (§2) Preparation and subcutaneous implantation of tumor pieces: HepG2 tumors (passage 2 for HepG2 study and passage 1 for HepG2 (sub-dose CLB0137) study) or Hep3B tumors (passage 1 for Hep3B study and passage 9 for Hep3B (sub-dose CLB0137) study) were propagated in athymic nude mice and harvested from euthanized mice when they reached ˜500-900 mm^3. PDA tumors (passage 6) were propagated in SCID mice (both flanks) and harvested from euthanized mice when they reached ˜600-700 mm^3 in size. Harvested tumors were transferred to a sterile Petri dish containing RPMI-10% FBS medium or D-PBS plus penicillin/streptomycin. Enough media was added to bathe the tumor in order to ensure the viability of the transplant material. Tumors were dissected into 2 mm×2 mm cubes using a sterile scalpel. Care was taken to make the pieces as uniform in size and shape as possible. Tumor pieces were implanted into recipient mice immediately after being prepared.
# (§3) Tumor Size Measurements: Tumor size was measured by digital caliper in two dimensions (in mm): maximum length (l) and maximum width (w) taken perpendicular to one another. The measurements were used to calculate tumor volume according to the formula: tumor volume=(l×w2)/2 (w<l). The value obtained by this formula is also equal to the mass of the tumor in mg. Starting 2 days after tumor implantation, tumor measurements were made every 2-3 days prior to treatment initiation and then twice per week (e.g., on Day 1 (D1, the day of treatment initiation), D4, D8, D11, D15, D18, D22, D25, D29, D32, D36, D39, D43, D46, D50, D53 and D57). Tumor measurements were collected more frequently when tumor size approached the tumor size endpoint in order to prevent passing the endpoint between scheduled measurements.
# (§4) Administration of test and control articles: Mice were administered the designated solutions when the mean tumor volume per treatment group was ˜45-200 mm^3.
# The volume of dosing solution administered ip or iv was 8 ml/kg mouse body weight. Intravenous injections were performed via the tail vein. […]
# Monitoring and Sample Collection: Twice daily, mice were monitored for mortality and morbidity for the duration of the experiment. […] All abnormal observations were documented and semi-quantitative scores were assigned for “body condition,” “posture,” and “activity.” Scores of 4, 3, 2, and 1 were assigned to normal conditions (4), and slightly (3), moderately (2) and severely (1) abnormal conditions, respectively. […]
# Data analysis: For all study groups, maximum tumor growth inhibition was calculated for Day 11, 13, or 15 (Day X). […] For each tumor, relative tumor size was calculated relative to its size on Day 1 when treatment was initiated (i.e., fold tumor growth). […] Differences in tumor sizes between groups were determined using ANOVA analysis (GraphPad Prism 5 Software) where “*” refers to P=0.01-0.05 (significant), “**” refers to P=0.001-0.01 (very significant) and “***” refers to P<0.001 (extremely significant), Differences that were not statistically significant are indicated with “ns”. […] Tumor growth delay (T−C) was calculated by subtracting the median time for the control to reach the 1000 mm^3 size endpoint from that of the median time for the treated groups to reach the size endpoint.
# A549 = A549 engraft experiment; assay type: in vivo; conditions: one engraft experiment
# H1975 NSCLC tumors = system: H1975 NSCLC tumors
# Experimental: as §1
# Description of H1975 NSCLS test material: Human H1975 NSCLC cell line (originally from ATCC) suspension was mixed 1:1 with Matrigel at 5×10^7 cells/ml (5×10^6 cells delivered per 100 μl injection) and kept on ice until inoculation.
# For the NSCLC studies, solutions were prepared in two lots (once per 2 weeks) to ensure that fresh solutions were used throughout the study.
# Preparation and inoculation of tumor cells: The night before inoculation, the Matrigel was placed on ice in the refrigerator to thaw. Prior to the start of cell harvesting, a supply of pipettes, tubes and tips were placed into the freezer so that they were cold when it was time to work with the Matrigel. One ml syringes and ½″ 23 G needles were also pre-chilled. This step was necessary to prevent premature solidification of Matrigel, which becomes solid at room temperature or higher (i.e., 37° C.).
# H1975 cell suspension was prepared immediately before tumor inoculation in PBS. H1975 cells at passage 16 were harvested from forty 150 mm diameter dishes and diluted to 10×10^7 cells/ml in PBS (5.87 ml). Just prior to inoculation, using pre-chilled tips and tubes, 4.5 ml of this cell suspension was mixed with an equal volume of Matrigel (1:1) to a total volume of 9 mL Cell suspensions were kept on ice. The final concentration of cells was […].
# Prior to inoculation of mice, the tumor cell-Matrigel mixture was carefully mixed by inverting the tube several times. A pre-chilled 1 nil syringe was filled with tumor cell-Matrigel mixture and then a pre-chilled ½″ 23 G capped needle was attached to the end of syringe to perform the injection. The closed filled syringe was inverted several times and then 100 μl of the cell-Matrigel mixture was inoculated subcutaneously into the left flank of each mouse.
# For inoculation, mice were anesthetized with isoflurane (3-4% induction in 100% O2, 1-2% maintenance) to aid in proper subcutaneous inoculation.
# as §3, §4
# For all groups, Q4 d dosing was performed on D1, 05, 09, 013, 017, 021, 025, and 029 of the study. For groups that received only one drug rather than both, the vehicle for the drug that was not given was administered in its place as a mock administration. The volume of dosing solution administered ip or iv was 8 ml/kg mouse body weight. Intravenous injections were performed via the tail vein. Administration of drugs was done slowly without force on the syringe.
# Monitoring and Sample Collection: Twice daily, mice were monitored for mortality and morbidity for the duration of the experiment. […] All abnormal observations were documented and semi-quantitative scores were assigned for “body condition,” “posture,” and “activity.” Scores of 4, 3, 2, and 1 were assigned to normal conditions (4), and slightly (3), moderately (2) and severely (1) abnormal conditions, respectively.
# [2] = system: patient-derived PDA #13590 tumors; assay: PDA #13590 study: CBL0137/gemcitabine against patient-derived pancreatic tumor engrafts; assay type: in vivo, SCID mice
# Source text: as §1, §2, §3, §4
# The volume of dosing solution administered ip or iv was 8 ml/kg mouse body weight. Intravenous injections were performed via the tail vein. Administration of drugs was done slowly without force on the syringe.
# Monitoring and Sample Collection: Twice daily, mice were monitored for mortality and morbidity for the duration of the experiment. […] All abnormal observations were documented and semi-quantitative scores were assigned for “body condition,” “posture,” and “activity.” Scores of 4, 3, 2, and 1 were assigned to normal conditions (4), and slightly (3), moderately (2) and severely (1) abnormal conditions, respectively. Cages were taken to a laminar flow hood and opened in order to clearly assess mouse activity.
# Data analysis: For all study groups, maximum tumor growth inhibition was calculated for Day 11, 13, or 15 (Day X). […] For each tumor, relative tumor size was calculated relative to its size on Day 1 when treatment was initiated (i.e., fold tumor growth). To calculate the maximum tumor growth inhibition for each tumor, the following equation was used: 100−(fold tumor growth drug-treated Day X/mean fold tumor growth vehicle-treated Day X)*100. Differences in tumor sizes between groups were determined using ANOVA analysis (GraphPad Prism 5 Software) where “*” refers to P=0.01-0.05 (significant), “**” refers to P=0.001-0.01 (very significant) and “***” refers to P<0.001 (extremely significant), Differences that were not statistically significant are indicated with “ns”. […] Tumor growth delay (T−C) was calculated by subtracting the median time for the control to reach the 1000 mm^3 size endpoint from that of the median time for the treated groups to reach the size endpoint.
smiles,measurement,setting,value
Nc1ccn([C@@H]2O[C@H](CO)[C@@H](O)C2(F)F)c(=O)n1 [gemcitabine],mean fold tumor growth,"[1]; Day 15, gemcitabine 40 mg/kg ip Q4d, CBL0137 80 mg/kg iv 1×/wk, 4 weeks",0.55 fold
same,tumor growth (in words),[1]; Day 29,regression of all tumors
same,mean fold tumor growth,[1]; Day 54,26.7 fold
same,individual tumors regressed or disappeared,[1]; by Day 15,8/10
same,animal survival time,"[1]; gemcitabine 40 mg/kg ip Q4d, CBL0137 80 mg/kg iv 1×/wk",54 days
same,response of A549 in engraft experiment (in words),A549,resistant to gemcitabine
same,median time to reach endpoint,"H1975 NSCLC tumors; 2000 mm^3 size endpoint, vehicle 15.6 days",47.8 days
same,individual tumors smaller than at start of treatment on Day 1,"H1975 NSCLC tumors; Day 5, vehicle 1/9",9/10
same,tumor growth inhibition,H1975 NSCLC tumors; Day 15,88.8%
same,mean fold tumor growth,"H1975 NSCLC tumors; Day 15, vehicle 8.52-fold",0.958 fold
same,tumor growth inhibition,H1975 NSCLC tumors; Day 22,82.6%
same,mean fold tumor growth,"H1975 NSCLC tumors; Day 22, CBL0137 70 mg/kg iv Q4d, gemcitabine 40 mg/kg ip Q4d, vehicle 15.2",2.7 fold
same,mean fold tumor growth,H1975 NSCLC tumors; Day 39,3.66 fold
same,delay in tumor growth (relative to vehicle treatment),"H1975 NSCLC tumors; mouse, in vivo",32.2 days
same,signs of morbidity,"H1975 NSCLC tumors; mouse, in vivo",no signs of morbidity
same,"toxicity, cage-side observations","H1975 NSCLC tumors; mouse, in vivo",None of the cage-side observations were indicative of any toxicity
same,median survival time (MST),H1975 NSCLC tumors; vehicle 16 days,48.5 days
same,median survival time (MST),H1975 NSCLC tumors; vehicle 22 days,51.5 days
same,individual tumors showing regression or disappeared,"[2]; Day 29, vehicle 1/9",6/6
same,mean fold tumor growth,[2]; Day 57,7.91±2.7 fold
same,mean fold tumor growth,[2]; Day 71,12.98±3.9 fold
same,animals surviving to the end of the study,"[2]; Day 88, vehicle 0/5",¼
same,antitumor efficacy (in words),[2]; PDA #13590,effective against PDA #13590 tumor growth as single agents
same,median survival time (MST),"[2]; vehicle 46 days, study end Day 88",76.5 days
